Measurements published in patent publication US20100184852A1, “ORGANIC COMPOUNDS FOR TREATMENT OF DISORDERS CONNECTED TO IMPAIRED NEUROTRANSMISSION” (priority 2006, published 2010).

How the values were obtained:
[1] = molecular target: T1, human serotonin re-uptake transporter (hSERT) (Homo sapiens, UniProt P31645); experiment: Serotonin uptake inhibition in HEK-293 cells expressing hSERT; format: cell-based; conditions: transfected HEK-293 cells; 20 nM (3H) serotonin, 30 minutes; average +/− s.e.m.; read-out: IC50 for tritiated serotonin uptake
T1 construct: host or cells: HEK-293
Description: HEK-293 cells stably expressing the human serotonin re-uptake transporter (hSERT) were obtained from R. Blakely, Vanderbilt University, USA. The cells were routinely grown in Dulbeco's Modified Eagles Medium, purchased from Bioconcept, Allschwil, Switzerland containing 10% fetal calf serum, penicillin, streptomycin, L-glutamine and the antibiotic G418 and passaged by trypsinisation. One day prior to the assay cells were seeded in the above mentioned medium. Immediately prior to the assay the medium was replaced by Krebs Ringers bicarbonate buffer, purchased from Sigma Chemicals Ltd., supplemented with 35 μM pargyline, 2.2 mM CaCl2, 1 mM ascorbic acid and 5 mM N-2-hydroxyethylpiperazine-N′-2-ethanesulfonic acid (buffer called “Hepes”). Serotonin uptake into the cells was determined by addition of radio-labeled (3H) serotonin (Amersham Biosciences GE Healthcare, Slough, UK) to a concentration of 20 nM, and incubation for 30 minutes at room temperature. Following removal of unincorporated label by gentle washing three times with the above buffer, incorporated serotonin was quantified by liquid scintillation counting.
The effect of the compounds of formula I on the serotonin uptake was determined by its inclusion in the assay at a range of concentrations between 0.03 and 100 μM for 10 minutes prior to and during the addition of (3H) serotonin/citalopram. Serotonin uptake via the transporter was inhibited by ligustilide, 3-butylphthalide, senkyunolide A, senkyunolide C, senkyunolide B, and cnidilide, respectively, in a dose dependent manner, with IC50 values as shown in Table 2.

[2] = molecular target: T2, Monoamine oxidase A (MAO-A) (Homo sapiens, UniProt P21397); experiment: Monoaminooxidase A inhibition (H2O2/vanillic acid/HRP readout); format: biochemical
T2 sequence (P21397 1-527): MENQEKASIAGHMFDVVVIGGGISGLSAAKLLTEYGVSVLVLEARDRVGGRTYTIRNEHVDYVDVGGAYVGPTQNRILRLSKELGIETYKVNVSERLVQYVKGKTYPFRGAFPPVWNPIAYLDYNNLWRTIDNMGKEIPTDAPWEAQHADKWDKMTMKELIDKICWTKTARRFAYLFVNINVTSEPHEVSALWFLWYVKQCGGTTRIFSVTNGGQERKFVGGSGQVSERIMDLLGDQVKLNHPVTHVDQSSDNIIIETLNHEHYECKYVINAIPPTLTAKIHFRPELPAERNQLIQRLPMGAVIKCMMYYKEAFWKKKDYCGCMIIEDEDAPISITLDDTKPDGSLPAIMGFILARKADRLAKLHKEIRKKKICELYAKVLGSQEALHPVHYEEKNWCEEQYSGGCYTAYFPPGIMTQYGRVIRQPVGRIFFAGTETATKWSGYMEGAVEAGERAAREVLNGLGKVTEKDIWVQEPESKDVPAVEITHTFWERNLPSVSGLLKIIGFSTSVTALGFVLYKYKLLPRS
Description: The organic amines p-tyramine or benzylamine were used as substrates for the Monoamine oxidase A (MAO-A) and B (MAO-B) enzymes respectively. The H2O2 produced by this reaction was quantified by reaction with vanillic acid, catalysed by horse radish peroxidase (HRP).
The reactions were carried out in polystyrene microtitre plates. The MAO enzymes (final concentration 2 U/ml) were mixed with either p-tyramine (Sigma, final concentration 0.5 mM) or benzylamine (Sigma, final concentration 0.5 mM) as appropriate and the chromogenic solution (containing vanillic acid (Fluka), 4-aminoantipyrine (Fluka) and horse radish peroxidase (Sigma), final concentrations 0.25 mM, 0.125 mM and 1 U/ml respectively) in 0.2 M potassium phosphate buffer pH 7.6. The reactions were followed in a microtitre plate absorbance reader eg Spectramax M5 (Molecular Devices Corporation). Absorbance readings at 495 nm were taken every 15 seconds for 40 minutes and the initial reaction velocities calculated by linear regression using SOFTmaxPro (Molecular Devices Corporation).
The effect of ligustilide, 3-butylphthalide, senkyunolide C and cnidilide on the monoamine oxidase enzymes was determined by their inclusion in the assay at a range of concentrations between 0.03 and 100 μM for 10 minutes prior to and during the incubation with substrate. To determine the effect of the compounds on the HRP catalyzed portion of the reaction, the MAO enzyme was replaced by H2O2 (Molecular Probes, final concentration 0.2 mM). The reactions containing MAO-A and MAO-B were both inhibited by […] according to formula I in a dose dependent manner, whilst the control reaction, was unaffected. The measured IC50 values for inhibition of monoamine oxidase activity by ligustilide, 3-butylphthalide, senkyunolide C and enidilide, respectively, are shown in Table 3.

[3] = system: mice; experiment: Elevated plus maze test; format: in vivo, mouse; conditions: for OPEN ARM Number of entries, Mean ± sem / OPEN ARM Time spent (s), Mean ± sem: 5 h and 1 h before test; for OPEN ARM Number of entries, % change / OPEN ARM Time spent, % change: versus vehicle
Source text: The method, which detects anxiolytic activity, follows that described by Handley et al, 1984 (Naunyn-Schm Arch Pharm 387: 1-5. Rodents avoid open spaces (the open arms of an elevated plus-maze). Anxiolytics increase exploratory activity in the […].
The maze consists of 4 arms of equal length and width (14×5 cm) arranged in the form of a plus sign (+). Two opposite arms are enclosed by 12 cm high walls (closed arms). The 2 other arms have no walls (open arms). The maze is raised 56 cm above the floor. A mouse is placed in the centre of the plus-maze and left to explore for 5 minutes. The number of entries into the open and closed arms and the time spent in the open arms is recorded. 10 mice were studied per group. The test was performed blind.
3-n-Butylphthalide was tested at doses of 10, 30, and 80 mg/kg body weight.

[4] = molecular target: T3, human dopamine transporter (hDAT) (Homo sapiens, UniProt Q01959); experiment: Dopamine uptake inhibition in CHO-Ki/hDAT cells; format: cell-based; conditions: 50 nM [3H]Dopamine, 10 minutes
T3 construct: expressed in transfected cells; host or cells: CHO-Ki (CHO-K1)
Description: CHO-Ki/hDAT cells expressing the human dopamine transporter (hDAT) were plated before the assay. Cells (2×10^5/ml) were incubated with the compound of the formula I (3-n-butylphthalide) and/or vehicle in modified Tris-HEPES buffer pH 7.1 at 25° C. for 20 minutes before addition of 50 nM [^3H]Dopamine for 10 minutes. Specific signal was determined in the presence of 10 μM nomifensine. Cells were then solubilized with 1% […] lysis buffer. Reduction of [^3H]Dopamine uptake by 50 percent or more 50%) relative to vehicle controls indicates significant inhibitory activity. Compounds were screened at 10, 1, 0.1, 0.01 and 0.001 μM.

T1 sequence (P31645 whole entry): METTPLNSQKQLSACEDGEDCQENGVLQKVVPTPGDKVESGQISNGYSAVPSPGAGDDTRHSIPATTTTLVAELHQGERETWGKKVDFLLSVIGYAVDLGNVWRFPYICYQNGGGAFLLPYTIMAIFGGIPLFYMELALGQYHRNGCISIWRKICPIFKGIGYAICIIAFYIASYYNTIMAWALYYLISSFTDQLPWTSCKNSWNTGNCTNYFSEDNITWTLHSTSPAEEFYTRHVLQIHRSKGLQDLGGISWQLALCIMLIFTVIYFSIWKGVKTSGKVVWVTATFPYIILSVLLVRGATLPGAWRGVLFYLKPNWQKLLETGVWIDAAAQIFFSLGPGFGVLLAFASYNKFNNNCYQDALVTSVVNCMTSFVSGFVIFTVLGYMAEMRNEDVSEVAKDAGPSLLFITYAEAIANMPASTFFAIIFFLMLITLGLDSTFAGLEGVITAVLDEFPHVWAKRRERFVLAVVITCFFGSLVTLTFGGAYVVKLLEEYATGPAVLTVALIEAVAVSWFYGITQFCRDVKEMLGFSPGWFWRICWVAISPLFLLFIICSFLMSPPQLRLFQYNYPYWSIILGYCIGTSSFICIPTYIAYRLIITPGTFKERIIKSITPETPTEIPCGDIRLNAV
T3 sequence (Q01959 whole entry): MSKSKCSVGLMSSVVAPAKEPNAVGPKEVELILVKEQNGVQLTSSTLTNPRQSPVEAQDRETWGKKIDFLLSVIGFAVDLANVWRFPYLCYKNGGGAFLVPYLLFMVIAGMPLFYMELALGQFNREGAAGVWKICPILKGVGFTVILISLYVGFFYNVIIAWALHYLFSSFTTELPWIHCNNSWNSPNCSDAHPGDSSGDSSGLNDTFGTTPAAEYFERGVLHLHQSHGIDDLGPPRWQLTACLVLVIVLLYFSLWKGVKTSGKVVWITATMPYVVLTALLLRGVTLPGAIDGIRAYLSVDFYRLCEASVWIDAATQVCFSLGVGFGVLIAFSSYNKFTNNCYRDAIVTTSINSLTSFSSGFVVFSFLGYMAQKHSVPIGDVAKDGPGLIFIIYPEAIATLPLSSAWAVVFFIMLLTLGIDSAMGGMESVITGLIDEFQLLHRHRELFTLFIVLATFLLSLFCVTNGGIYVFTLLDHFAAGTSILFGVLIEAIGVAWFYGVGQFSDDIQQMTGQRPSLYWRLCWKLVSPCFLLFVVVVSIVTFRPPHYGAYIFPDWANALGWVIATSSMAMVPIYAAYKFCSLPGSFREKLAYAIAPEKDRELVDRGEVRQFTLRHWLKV

| SMILES | IC50 [1] | IC50 [2] | OPEN ARM Number of entries, Mean ± sem ([3]; 10 mg/kg p.o. −24 h) | OPEN ARM Time spent (s), Mean ± sem ([3]; 10 mg/kg p.o. −24 h) | OPEN ARM Number of entries, % change ([3]; 10 mg/kg p.o.) | OPEN ARM Time spent, % change ([3]; 10 mg/kg p.o.) | OPEN ARM Number of entries, Mean ± sem ([3]; 30 mg/kg p.o. −24 h) | OPEN ARM Time spent (s), Mean ± sem ([3]; 30 mg/kg p.o. −24 h) | OPEN ARM Number of entries, % change ([3]; 30 mg/kg p.o.) | OPEN ARM Time spent, % change ([3]; 30 mg/kg p.o.) | OPEN ARM Number of entries, Mean ± sem ([3]; 80 mg/kg p.o. −24 h) | OPEN ARM Time spent (s), Mean ± sem ([3]; 80 mg/kg p.o. −24 h) | OPEN ARM Number of entries, % change ([3]; 80 mg/kg p.o.) | OPEN ARM Time spent, % change ([3]; 80 mg/kg p.o.) | anxiolytic activity ([3]; 10, 30 and 80 mg/kg) | entries into the closed arm ([3]; 10, 30 and 80 mg/kg) | number of entries and time spent in the open arm (overall) ([3]; 10, 30 and 80 mg/kg) | IC50 [4] |
| --- | --- | --- | --- | --- | --- | --- | --- | --- | --- | --- | --- | --- | --- | --- | --- | --- | --- | --- |
| CCCC[C@@H]1OC(=O)c2ccccc21 (stereo in doubt) [3-n-butylphthalide, 3-n-Butylphthalide] | 35.2 µM | 8.1 µM | 3.5 ± 0.7 | 24.3 ± 4.6 s | +46% | +34% | 3.1 ± 0.5 | 23.0 ± 3.8 s | +29% | +26% | 3.0 ± 0.8 | 26.4 ± 5.3 s | +25% | +45% | moderate anxiolytic activity | no effect | trend to moderately increase | 22 µM |
| CCC/C=C1\OC(=O)C2=C1CCC=C2 [Ligustilide] | 20.4 µM | 15.7 µM | – | – | – | – | – | – | – | – | – | – | – | – | – | – | – | – |
